In patent US20130116284A1, “LIPOIC ACID AND NITROXIDE DERIVATIVES AND USES THEREOF” (RADIKAL THERAPEUTICS INC., priority 2010, published 2013):
Several values for one entry are separate records, joined by “and”; a condition that tells them apart may be missing. Identical values can stand only once.

What was measured:
RAW cells = assay: cytoprotection of RAW cells exposed to H2O2 (viability); details: 0.1 μM, same model system (not shown)
PARP = details: read-out: PARP inhibitor IC50; stated for the monofunctional PARP inhibitor, no method given; cited from earlier work
Balb/c mice = assay: murine model of chlorine inhalational lung injury (lung MPO, lung histology); assay type: in vivo; details: 30 mg/kg/dose IP q12h from 15 minutes after 400 ppm Cl2 for 30 minutes; lung at 24 hours; relative to placebo (D5W)
Procedure: In this study, we potency of compound 1 (R-503) in treatment of chlorine inhalational lung injury was tested.
Male Balb/c mice were exposed in a cylindrical glass chamber to 400 ppm Cl2 in air for 30 minutes. 15 minutes after the conclusion of Cl2 exposure, mice were initiated on a q12h regimen of compound 1 (30 mg/kg/dose IP in 0.5 ml dextrose 5% in water, D5W). At 24 hours, mice were euthanized and lung tissue was taken for examination of polymorphonuclear neutrophil (PMN) infiltration (as reflected by MPO) and lung histology (H&E staining). The following morphological criteria were used for scoring: 0, normal lung; grade 1, minimal edema or infiltration of alveolar or bronchiolar walls; grade 3, moderate edema and inflammatory cell infiltration without obvious damage to lung architecture; grade 4, severe inflammatory cell infiltration with obvious damage to lung architecture. As shown in FIGS. 4A-4B, compound 1 therapy reduced the elevation in MPO and histological lung damage by 82% and 73%, respectively, relative to placebo (D5W).

CD mice = assay: rodent model of inflammation induced by zymosan (lung MPO, lung histology); assay type: in vivo; details: 60 mg/kg IP at 1 hour after zymosan 500 mg/kg IP; lung at 18 hours; vs. vehicle control
Procedure: In this study, we tested the potency of compound 1 (R-503) in treatment of an inflammation induced by zymosan, a glucan with repeating glucose units connected by β-1,3-glycosidic linkages.
Male CD mice (20-22 g) were randomly allocated into the following groups (n=10 per experimental arm): (i) zymosan+vehicle group, wherein zymosan (500 mg/kg) was administered via an intraperitoneal (IP) route; (ii) zymosan+compound 1 group, which was identical to the zymosan+vehicle group except for the administration of compound 1 (60 mg/kg IP) at 1 hour after zymosan challenge; and (iii) Sham+vehicle group, which was identical to the zymosan+vehicle group but vehicle was administered in place of zymosan. 18 hours after zymosan admininstration, lung samples were scored for histologic injury by a pathologist blinded to group assignment and neutrophil concentration was determined by measurement of myeloperoxidase (MPO) activity. The following morphological criteria were used for scoring: 0, normal lung; grade 1, minimal edema or infiltration of alveolar or bronchiolar walls; grade 3, moderate edema and inflammatory cell infiltration without obvious damage to lung architecture; grade 4, severe inflammatory cell infiltration with obvious damage to lung architecture. […]

PARP-1 = PARP-1 (Homo sapiens, UniProt P09874); assay: in vitro PARP inhibition potency assay, Universal calorimetric PARP-1 Assay Kit (Trevigen); assay type: biochemical; details: 10 point curve, 0.16 nM to 250 nM
Sequence of PARP-1 (P09874 whole entry): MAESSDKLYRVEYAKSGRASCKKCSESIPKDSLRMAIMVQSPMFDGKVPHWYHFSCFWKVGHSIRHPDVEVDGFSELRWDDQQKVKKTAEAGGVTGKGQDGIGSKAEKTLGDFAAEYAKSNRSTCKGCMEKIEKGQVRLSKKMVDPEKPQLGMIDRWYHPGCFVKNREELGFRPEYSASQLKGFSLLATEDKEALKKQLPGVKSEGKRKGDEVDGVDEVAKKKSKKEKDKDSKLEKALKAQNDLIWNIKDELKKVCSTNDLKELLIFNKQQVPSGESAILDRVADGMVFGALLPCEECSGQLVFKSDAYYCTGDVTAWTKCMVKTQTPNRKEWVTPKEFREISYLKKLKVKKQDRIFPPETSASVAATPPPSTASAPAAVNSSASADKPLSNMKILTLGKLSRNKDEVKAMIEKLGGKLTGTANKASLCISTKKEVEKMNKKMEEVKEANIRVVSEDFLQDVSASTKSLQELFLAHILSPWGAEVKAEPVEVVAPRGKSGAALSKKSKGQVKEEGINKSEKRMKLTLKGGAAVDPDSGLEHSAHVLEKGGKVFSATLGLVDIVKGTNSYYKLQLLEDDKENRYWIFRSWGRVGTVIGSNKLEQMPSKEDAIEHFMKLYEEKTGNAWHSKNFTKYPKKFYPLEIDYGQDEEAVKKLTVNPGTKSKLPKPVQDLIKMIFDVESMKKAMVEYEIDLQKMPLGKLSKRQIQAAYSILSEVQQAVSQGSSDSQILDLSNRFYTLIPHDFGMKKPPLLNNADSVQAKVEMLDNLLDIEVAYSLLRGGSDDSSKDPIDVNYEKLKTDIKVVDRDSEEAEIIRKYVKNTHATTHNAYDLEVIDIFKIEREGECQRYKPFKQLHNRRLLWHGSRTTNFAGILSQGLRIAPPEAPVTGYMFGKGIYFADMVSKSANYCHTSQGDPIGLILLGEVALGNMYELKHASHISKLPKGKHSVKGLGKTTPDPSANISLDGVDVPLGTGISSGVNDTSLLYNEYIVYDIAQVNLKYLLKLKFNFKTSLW
Procedure: In this experiment, the PARP inhibition activity of compound 1 (R-503) was evaluated in in vitro potency assay using Universal calorimetric PARP-1 Assay Kit (Trevigen, Gaithersburg, Md.).

## O=C(O)CCCC[C@@H]1CCSS1 (racemic) [lipoic acid]
RAW cells
  cytoprotective effect in RAW cells exposed to H2O2: no beneficial effect

## C[C@]1(c2nc3c(C(N)=O)cccc3[nH]2)CCCN1 [ABT-888]
PARP
  IC50: < 5 nM

## NC(=O)c1cccc2[nH]c(CCCCC3CCSS3)nc12 (stereo not shown) [compound 1, 2-(4-(1,2-dithiolan-3-yl)butyl)-1H-benzo[d]imidazole-4-carboxamide]
Balb/c mice
  reduction of elevation in lung MPO: 82%
  reduction of histological lung damage: 73%
CD mice
  reduction of elevation in lung MPO activity: 65%
  reduction of lung histologic injury: 80%
PARP-1
  IC50: 26.2 nM and 26 nM
